From patent publication US11498921B1, “Pyrimidine or pyridine compounds, preparation method therefor and pharmaceutical uses thereof” (INVENTISBIO CO., LTD., priority 2014, dated 2022)
pIC50: −log10 of the molar value. Structures can show the parent of a compound that is named as a salt.

Key:
[1] = Concentration of parent drug and metabolite AZ5104 in rat plasma; format: in vivo; conditions: po, adult male rats, intragastrically, 10 mg/kg, 0.25-24 hours
Procedure: Comparison of the concentration of the metabolite AZ5104 in rats' body plasma of the pyrimidine compounds according to the present invention and AZD9291
Briefly, AZD9291 or the compound 49.(HCl)n of Example 49 or the compound 104.(MsOH) of Example 104 were administered intragastrically to 200-220 g of adult male rats at amount of 10 mg/kg. Each administration group had two to three rats. After administration, 150 μl of blood was extracted from the vein on the rat tail at different times (0.25, 0.5, 1, 2, 4, 6, 8, 12 and 24 hours), put in a tube with K2EDTA and placed immediately on ice. Then, the blood sample was centrifuged in centrifuge with a 4-degree at a speed of 2000 g for 15 minutes. The plasma was separated and placed in a small tube and stored in a refrigerator at −80° C. The concentration of parent drug and metabolite in plasma sample was analyzed by LC/MS.

[2] = system: NCI-H1975 cells (T790M and L858R EGFR mutations); assay: Cell growth inhibition (Cell Titer-Glo), NCI-H1975; format: cell-based; conditions: Homo sapiens, 72 hours drug treatment, 0.03 nM to 100 nM
Procedure: (§1) Experiment of Cell Growth Inhibition
(§2) The LoVo cell line is a wild-type EGFR human colon adenocarcinoma cell, and is grown in F-12K medium (GIBCO) containing 10% FBS. NCI-H2073 cell line is a wild-type EGFR human non-small cell lung cancer cell and grown in ACL-4 medium containing 10% FBS. The growth rate of NCI-H1975, LoVo and NCI-H2073 cells was detected by Cell Titer-Glo luminescence activity assay (Promega #G7572).
(§3) Briefly, trypsin was used for digesting cells in the logarithmic growth phase. 96-well plates were seeded with 50,000 Lovo or NCI-H2073 cells, 2500-3000 NCI-H1975 cells per well and provided with blank control wells containing only nutrient solution without inoculated cell, and the plates were incubated in a humidified incubator with 5% CO2 at 37° C. […] The concentration of test drug in NCI-H1975 cells was from 0.03 nM to 100 nM, and that in LoVo and NCI-H2073 cells was from 3 nM to 10 μM. The cell culture medium containing the different compounds was then added to a 96-well cell plate in which one cell control well comprising cell culture medium only containing DMSO was provided. After a drug treatment for 72 hours, the cell plates were removed from the incubator and allowed to stand at room temperature for 30 minutes. Next, Cell Titer-Glo reagent was added to the wells and the 96-well cell plate was shaken at room temperature for 10 minutes to induce cell lysis. The 96-well cell plate was placed on the bench for 2 minutes to stabilize the luminescence signal. Finally, the 96-well cell plate was placed in an EnVision Multi-labeled Microplate Reader (PerkinElmer), and the signal was read with an integral time of 0.5 seconds.
(§4) Formula: Percentage of cell growth inhibition %=(maximum signal−compound signal)/(maximum signal−minimum signal)*100%
(§5) The maximal signal was obtained from the cell control well which were treated with the DMSO solution having no any compound;
(§6) The compound signal was obtained from the drug-treated cell wells to which the compound was added;
(§7) The minimum signal was obtained from a blank control well to which no cells and only nutrient solution was added.

[3] = system: NCI-H2073 cells (wild-type EGFR human non-small cell lung cancer); assay: Cell growth inhibition (Cell Titer-Glo), NCI-H2073; format: cell-based; conditions: 72 hours drug treatment, 3 nM to 10 μM
Procedure: as §1
as §2, with “The compounds that were preferentially targeted for EGFR targeting certain mutations and relatively weak in wild-type EGFR were identified by determining the growth of cells. The NCI-H1975 cell line is a human non-small cell lung cancer cell containing T790M and L858R EGFR mutations, and the cell is grown in RPMI-1640 medium (GIBCO) containing 10% fetal bovine serum (FBS). The LoVo” for “The LoVo”
Briefly, trypsin was used for digesting cells in the logarithmic growth phase. 96-well plates were seeded with 50,000 Lovo or NCI-H2073 cells, 2500-3000 NCI-H1975 cells per well and provided with blank control wells containing only nutrient solution without inoculated cell, and the plates were incubated in a humidified incubator with 5% CO2 at 37° C. After 24 hours, the DMSO solution of the different compounds was diluted with a cell culture medium at 3.16 times per time to eight different concentrations from high to low levels. The concentration of test drug in NCI-H1975 cells was from 0.03 nM to 100 nM, and that in LoVo and NCI-H2073 cells was from 3 nM to 10 μM. The cell culture medium containing the different compounds was then added to a 96-well cell plate in which one cell control well comprising cell culture medium only containing DMSO was provided. After a drug treatment for 72 hours, the cell plates were removed from the incubator and allowed to stand at room temperature for 30 minutes. Next, Cell Titer-Glo reagent was added to the wells and the 96-well cell plate was shaken at room temperature for 10 minutes to induce cell lysis. The 96-well cell plate was placed on the bench for 2 minutes to stabilize the luminescence signal. Finally, the 96-well cell plate was placed in an EnVision Multi-labeled Microplate Reader (PerkinElmer), and the signal was read with an integral time of 0.5 seconds.
as §4, §5, §6, §7

[4] = system: LoVo cells (wild-type EGFR human colon adenocarcinoma); assay: Cell growth inhibition (Cell Titer-Glo), LoVo; format: cell-based; conditions: 72 hours drug treatment, 3 nM to 10 μM
Procedure: as §1, §2, §3, §4, §5, §6, §7

| Compound | AUC [1] [µM·h] | pIC50 [2] | pIC50 [3] | pIC50 [4] |
| --- | --- | --- | --- | --- |
| C=CC(=O)Nc1cc(Nc2nccc(-c3cn(CC(F)(F)F)c4ccccc34)n2)c(OC)cc1N(C)CCN(C)C [104. (MsOH)2] | 1.49 | 7.78 | 6.01 |  |
| C=CC(=O)Nc1cc(Nc2nccc(-c3cn(C)c4ccccc34)n2)c(OC)cc1N(C)CCN(C)C [AZD9291, reference compound] | 0.64 |  |  |  |
| C=CC(=O)Nc1cc(Nc2cc(-c3cn(C)c4ccccc34)ncn2)c(OC)cc1N(C)CCN(C)C [44. (HCl)n] |  | 7.85 | 6.55 | 6.06 |
| C=CC(=O)Nc1cc(Nc2nccc(-c3cccc4c3ccn4C)n2)c(OC)cc1N(C)CCN(C)C [41. (HCl)n] |  | 8.13 | 6.47 | < 5.00 |
| C=CC(=O)Nc1cc(Nc2nccc(-c3cccc4c3cnn4C)n2)c(OC)cc1N(C)CCN(C)C [42. (HCl)n] |  | 8.15 | 6.31 | 5.15 |

Further lines, results first:

| AUC [1] [µM·h] | pIC50 [2] | pIC50 [3] | pIC50 [4] | Compound |
| --- | --- | --- | --- | --- |
|  | 8.27 | 6.47 | 5.37 | C=CC(=O)Nc1cc(Nc2nccc(N3CCc4ccccc43)n2)c(OC)cc1N(C)CCN(C)C [5. (MsOH)3] |
|  | 8.21 | 6.53 | 5.51 | C=CC(=O)Nc1cc(Nc2nccc(-n3ccc4ccccc43)n2)c(OC)cc1N(C)CCN(C)C [3. (MsOH)2] |
|  | 8.27 | 6.64 | 5.65 | C=CC(=O)Nc1cc(Nc2nccc(-c3nn(C)c4ccccc34)n2)c(OC)cc1N(C)CCN(C)C [1. (HCl)n] |
| 0.91 | 9.15 | 6.87 | 5.65 | C=CC(=O)Nc1cc(Nc2nccc(-c3cn(S(C)(=O)=O)c4ccccc34)n2)c(OC)cc1N(C)CCN(C)C [49. (HCl)n] |
